Measurements: patent US6737383B1, “Herbicidal oxadiazolidines” (priority 1999, dated 2004)

Assays:
velvetleaf = assay: Test B pre/postemergence velvetleaf; type: in vivo, Abutilon theophrasti
Procedure, shortened: (§1)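 Herbicidal effect was estimated by eye on a ten-point control scale after plants spent twelve to sixteen days in a greenhouse following soil or foliar treatment. Foliar sprays targeted plants at one to four leaves; all doses were formulated in a non-phytotoxic solvent with surfactant.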

bedstraw = assay: Test B pre/postemergence bedstraw; type: in vivo, Galium aparine
Procedure, shortened: as §1

crabgrass = assay: Test B pre/postemergence crabgrass; type: in vivo, Digitaria sanguinalis
Procedure, shortened: as §1

wheat = assay: Test B pre/postemergence wheat; type: in vivo, Triticum aestivum
Procedure, shortened: as §1

rice = assay: Test B flood test rice; type: in vivo, Oryza sativa
Procedure, shortened: (§2)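 Plants were grown to the 2-leaf stage before treatment with test chemical, then held in a greenhouse for twelve to sixteen days. Injury was visually rated against untreated controls on a 0–10 scale, where 0 is no effect and 10 is complete control.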

giant foxtail = assay: Test B pre/postemergence giant foxtail; type: in vivo, Setaria faberii
Procedure, shortened: as §1

surinam grass = assay: Test B pre/postemergence surinam grass; type: in vivo, Brachiaria decumbens
Procedure, shortened: as §1

pigweed = assay: Test B pre/postemergence pigweed; type: in vivo, Amaranthus retroflexus
Procedure, shortened: as §1

corn = assay: Test B pre/postemergence corn; type: in vivo, Zea mays
Procedure, shortened: as §1

smallflower flatsedge = assay: Test B flood test smallflower flatsedge; type: in vivo, Cyperus difformis
Procedure, shortened: as §2

cocklebur = assay: Test B pre/postemergence cocklebur; type: in vivo, Xanthium strumarium
Procedure, shortened: as §1

blackgrass = assay: Test B pre/postemergence blackgrass; type: in vivo, Alopecurus myosuroides
Procedure, shortened: as §1

wild oat = assay: Test B pre/postemergence wild oat; type: in vivo, Avena fatua
Procedure, shortened: as §1

morningglory = assay: Test B pre/postemergence morningglory; type: in vivo, Ipomoea hederacea
Procedure, shortened: as §1

bamyardgrass = assay: Test B flood test barnyardgrass; type: in vivo, Echinochloa crus-galli
Procedure, shortened: as §2

soybean = assay: Test B pre/postemergence soybean; type: in vivo, Glycine max
Procedure, shortened: as §1

[1] = Preemergence, Rate 62 g/ha, scale of 0 to 10 where 0 is no effect and 10 is complete control
[2] = Preemergence, Rate 250 g/ha, scale of 0 to 10 where 0 is no effect and 10 is complete control
[3] = Preemergence, Rate 500 g/ha, scale of 0 to 10 where 0 is no effect and 10 is complete control
[4] = Rate 62 g/ha, Postemergence, scale 0 to 10 (0 no effect, 10 complete control)
[5] = Rate 125 g/ha, Postemergence, scale of 0 to 10 where 0 is no effect and 10 is complete control
[6] = Rate 250 g/ha, Postemergence, scale of 0 to 10 where 0 is no effect and 10 is complete control
[7] = Rate 62 g/ha, headed Pre-emergence (flood test species), scale 0 to 10 (0 no effect, 10 complete control)
[8] = Rate 125 g/ha, Pre-emergence, flood test species, scale 0 to 10 where 0 is no effect and 10 is complete control
[9] = Rate 250 g/ha, Pre-emergence, flood-test species, scale 0 to 10, 0 is no effect, 10 is complete control
[10] = Rate 500 g/ha, Pre-emergence, flood test species, scale 0 to 10 (0 no effect, 10 complete control)
[11] = Rate 500 g/ha, Postemergence, scale 0 to 10, 0 no effect, 10 complete control

CC(C)n1c(=O)on(C(=O)N(c2ccc(Cl)cc2Cl)C2CCC2)c1=O [Compound 319]
Velvetleaf plant response rating (velvetleaf; [1]): 0
Velvetleaf plant response rating (0 to 10 scale) (velvetleaf; Preemergence, Rate 125 g/ha): 0
Velvetleaf plant response rating (velvetleaf; [2]): 0
Velvetleaf plant response rating (velvetleaf; [3]): 0
Velvetleaf plant response rating (velvetleaf; [4]): 0
Velvetleaf plant response rating (velvetleaf; [5]): 0
Plant response rating, Velvetleaf (velvetleaf; [6]): 0
Bedstraw plant response rating (bedstraw; [1]): 0
Bedstraw plant response rating (0 to 10 scale) (bedstraw; Preemergence, Rate 125 g/ha): 0
Bedstraw plant response rating (bedstraw; [2]): 0
Bedstraw plant response rating (bedstraw; [3]): 7
Bedstraw plant response rating (bedstraw; [4]): 0
Bedstraw plant response rating (bedstraw; [5]): 0
Crabgrass plant response rating (crabgrass; [1]): 0
Crabgrass plant response rating (0 to 10 scale) (crabgrass; Preemergence, Rate 125 g/ha): 0
Crabgrass plant response rating (crabgrass; [2]): 2
Crabgrass plant response rating (crabgrass; [3]): 3
Crabgrass plant response rating (crabgrass; [4]): 0
Crabgrass plant response rating (crabgrass; [5]): 0
Plant response rating, Crabgrass (crabgrass; [6]): 0
Wheat plant response rating (wheat; [1]): 0
Wheat plant response rating (0 to 10 scale) (wheat; Preemergence, Rate 125 g/ha): 0
Wheat plant response rating (wheat; [2]): 0
Wheat plant response rating (wheat; [3]): 0
Wheat plant response rating (wheat; [4]): 0
Wheat plant response rating (wheat; [5]): 0
Plant response rating, Wheat (wheat; [6]): 0
Rice plant response rating (rice; [7]): 0
Rice plant response rating (rice; [8]): 0
Rice plant response rating (rice; [9]): 0
Rice plant response rating (rice; [10]): 0
Giant foxtail plant response rating (giant foxtail; [1]): 6
Giant foxtail plant response rating (0 to 10 scale) (giant foxtail; Preemergence, Rate 125 g/ha): 7
Giant foxtail plant response rating (giant foxtail; [2]): 9
Giant foxtail plant response rating (giant foxtail; [3]): 9
Giant foxtail plant response rating (giant foxtail; [4]): 0
Giant foxtail plant response rating (giant foxtail; [5]): 0
Plant response rating, Giant foxtail (giant foxtail; [6]): 0
B. signalgrass plant response rating (surinam grass; [1]): 0
B. signalgrass plant response rating (0 to 10 scale, 0 is no effect, 10 is complete control) (surinam grass; Preemergence, Rate 125 g/ha): 0
B. signalgrass plant response rating (surinam grass; [2]): 2
B. signalgrass plant response rating (surinam grass; [3]): 3
B. signalgrass plant response rating (surinam grass; [4]): 0
B. signalgrass plant response rating (surinam grass; [5]): 0
Plant response rating, B. signalgrass (surinam grass; [6]): 0
B. signalgrass plant response rating (surinam grass; [11]): 0
Redroot pigweed plant response rating (pigweed; [1]): 0
Redroot pigweed plant response rating (0 to 10 scale) (pigweed; Preemergence, Rate 125 g/ha): 0
Redroot pigweed plant response rating (pigweed; [2]): 0
Redroot pigweed plant response rating (pigweed; [3]): 0
Redroot pigweed plant response rating (pigweed; [4]): 0
Redroot pigweed plant response rating (pigweed; [5]): 0
Plant response rating, Redroot pigweed (pigweed; [6]): 0
Corn plant response rating (corn; [1]): 0
Corn plant response rating (0 to 10 scale) (corn; Preemergence, Rate 125 g/ha): 0
Corn plant response rating (corn; [2]): 0
Corn plant response rating (corn; [3]): 0
Corn plant response rating (corn; [4]): 0
Corn plant response rating (corn; [5]): 0
Plant response rating, Corn (corn; [6]): 0
Corn plant response rating (corn; [11]): 0
S. Flatsedge plant response rating (smallflower flatsedge; [7]): 0
S. Flatsedge plant response rating (smallflower flatsedge; [8]): 0
S. Flatsedge plant response rating (smallflower flatsedge; [9]): 0
S. Flatsedge plant response rating (smallflower flatsedge; [10]): 0
Cocklebur plant response rating (cocklebur; [1]): 0
Cocklebur plant response rating (0 to 10 scale) (cocklebur; Preemergence, Rate 125 g/ha): 0
Cocklebur plant response rating (cocklebur; [2]): 0
Cocklebur plant response rating (cocklebur; [3]): 0
Cocklebur plant response rating (cocklebur; [4]): 0
Cocklebur plant response rating (cocklebur; [5]): 0
Plant response rating, Cocklebur (cocklebur; [6]): 0
Cocklebur plant response rating (cocklebur; [11]): 0
Blackgrass plant response rating (blackgrass; [1]): 0
Blackgrass plant response rating (0 to 10 scale) (blackgrass; Preemergence, Rate 125 g/ha): 0
Blackgrass plant response rating (blackgrass; [2]): 2
Blackgrass plant response rating (blackgrass; [3]): 4
Blackgrass plant response rating (blackgrass; [4]): 0
Blackgrass plant response rating (blackgrass; [5]): 0
Plant response rating, Blackgrass (blackgrass; [6]): 0
Blackgrass plant response rating (blackgrass; [11]): 3
Wild oats plant response rating (wild oat; [1]): 0
Wild oats plant response rating (0 to 10 scale) (wild oat; Preemergence, Rate 125 g/ha): 0
Wild oats plant response rating (wild oat; [2]): 0
Wild oats plant response rating (wild oat; [3]): 0
Wild oats plant response rating (wild oat; [4]): 0
Wild oats plant response rating (wild oat; [5]): 0
Plant response rating, Wild oats (wild oat; [6]): 0
Morningglory plant response rating (morningglory; [1]): 0
Morningglory plant response rating (0 to 10 scale) (morningglory; Preemergence, Rate 125 g/ha): 0
Morningglory plant response rating (morningglory; [2]): 0
Morningglory plant response rating (morningglory; [3]): 0
Morningglory plant response rating (morningglory; [4]): 2
Morningglory plant response rating (morningglory; [5]): 2
Plant response rating, Morningglory (morningglory; [6]): 4
Barnyardgrass plant response rating (bamyardgrass; [7]): 0
Barnyardgrass plant response rating (bamyardgrass; [8]): 0
Barnyardgrass plant response rating (bamyardgrass; [9]): 0
Barnyardgrass plant response rating (bamyardgrass; [10]): 2
Soybean plant response rating (soybean; [1]): 0
Soybean plant response rating (0 to 10 scale) (soybean; Preemergence, Rate 125 g/ha): 0
Soybean plant response rating (soybean; [2]): 0
Soybean plant response rating (soybean; [3]): 0
Soybean plant response rating (soybean; [4]): 0
Soybean plant response rating (soybean; [5]): 1
Plant response rating, Soybean (soybean; [6]): 1
